Earlier results, collected in patent US7087611B2, “Preparation of an anhydrate form of 5-[2-[4-(1,2-benzisothiazol-3-yl)-1-piperazinyl]ethyl]-6-chloro-1,3-dihydro-2H-indol-2-one hydrochloride (ziprasidone hydrochloride)” (Apotex Pharmachem Inc., priority 2004, dated 2006).
Structures can show the parent of a compound that is named as a salt.

Experiments:
[1] = crystalline monohydrate form; background statement
[2] = crystalline monohydrate form; as stated in U.S. Pat. No. 5,312,925

## O=C1Cc2cc(CCN3CCN(c4nsc5ccccc45)CC3)c(Cl)cc2N1 [ziprasidone hydrochloride monohydrate]
[1]
  aqueous solubility: very low
[2]
  hygroscopic stability: substantially hygroscopically stable
